# Laboratory results reported in patent publication US12409172B2, “Dosage regimen” (UNION therapeutics A/S, priority 2023, dated 2025).
# Assays:
# [1] = Chinese healthy volunteer study CIB1353A101: PK; settings: human, in vivo, oral; CIBI3S3A101 (D1 = 10 mg); N 18; read-out: AUClast, NCA GM (CV %)
# [2] = tested on: patients with moderate to severe psoriasis vulgaris; test: Phase 2a study LP0058-1072 (NCT02888236): orismilast 30 mg BID immediate release vs placebo, 16 weeks; assay type: in vivo
# Experimental: In a phase 2a prospective, randomized, double-blind, placebo-controlled clinical trial (NCT02888236), patients with moderate-to-severe psoriasis were randomized to receive 30 mg twice per day orally in the form of an immediate release (IR) formulation or placebo over 16 weeks.
# The modified-release formulation was studied in a clinical trial (LP0058-1442) and administered in a total of 36 healthy volunteers: 18 in part 1, 9 in part 2, and 9 in part 3. Twenty-seven (27) healthy volunteers received a single administration of 30 mg orismilast, and 9 subjects received multiple administrations over a period of 17 days with an up-titration up to a maximum of 60 mg BID. Part 1 of this study was to evaluate the key PK parameters of the new modified-release formulation compared to the reference capsule formulation with immediate release. Orismilast was rapidly absorbed from both formulations with median tmax values of 3.00 hours post-dose for the immediate-release capsule and 2.52 hours post-dose for the modified-release tablet. The individual tmax ranges were approximately 1 to 6 hours post-dose for the immediate-release capsule and 1 to 4 hours post-dose for the modified-release tablet. […]
structure (smiles),measurement,setting,value
"O=C(Cc1c(Cl)c[n+]([O-])cc1Cl)c1ccc(OC(F)F)c2c1OC1(CCS(=O)(=O)CC1)O2 [orismilast, 2-(3,5-dichloro-1-oxidopyridin-1-ium-4-yl)-1-[7-(difluoromethoxy)-1′,1′-dioxospiro[1,3-benzodioxole-2,4′-thiane]-4-yl]ethanone]",AUC(0-t),[1],167 ng·h/mL
same,efficacy in psoriasis on each predefined endpoint,[2],confirmed
same,patients withdrawn from the trial because of tolerability issues,[2],half
